Assay results from PubChem BioAssay (NCI).
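Five compound concentrations were applied to cells in 96-well plates for 48 hours; endpoints were derived by simple linear interpolation of the resulting dose-response curve. GI50: concentration for 50% inhibition of growth. TGI is the concentration that stops growth completely.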

What was measured:
Test in all cases: growth of human tumour cells (NCI), 48 h
786-0 renal = tested on: 786-0 renal
A498 renal = tested on: A498 renal
A549 NSCLC = tested on: A549 NSCLC
ACHN renal = tested on: ACHN renal
BT-549 breast = tested on: BT-549 breast
CAKI-1 renal = tested on: CAKI-1 renal
CCRF-CEM leukemia = tested on: CCRF-CEM leukemia
COLO 205 colon = tested on: COLO 205 colon
DU-145 prostate = tested on: DU-145 prostate
EKVX NSCLC = tested on: EKVX NSCLC
HCC-2998 colon = tested on: HCC-2998 colon
HCT-116 colon = tested on: HCT-116 colon
HCT-15 colon = tested on: HCT-15 colon
HL-60(TB) leukemia = tested on: HL-60(TB) leukemia
HOP-62 NSCLC = tested on: HOP-62 NSCLC
HOP-92 NSCLC = tested on: HOP-92 NSCLC
HS 578T breast = tested on: HS 578T breast
HT29 colon = tested on: HT29 colon
IGROV1 ovarian = tested on: IGROV1 ovarian
K-562 leukemia = tested on: K-562 leukemia
KM12 colon = tested on: KM12 colon
LOX IMVI melanoma = tested on: LOX IMVI melanoma
M14 melanoma = tested on: M14 melanoma
MALME-3M melanoma = tested on: MALME-3M melanoma
MCF7 breast = tested on: MCF7 breast
MDA-MB-231 breast = tested on: MDA-MB-231 breast
MDA-MB-435 = tested on: MDA-MB-435
MDA-MB-468 breast = tested on: MDA-MB-468 breast
MOLT-4 leukemia = tested on: MOLT-4 leukemia
NCI-H226 lung = tested on: NCI-H226 lung
NCI-H23 lung = tested on: NCI-H23 lung
NCI-H460 lung = tested on: NCI-H460 lung
NCI-H522 lung = tested on: NCI-H522 lung
NCI/ADR-RES ovarian = tested on: NCI/ADR-RES ovarian
OVCAR-3 ovarian = tested on: OVCAR-3 ovarian
OVCAR-4 ovarian = tested on: OVCAR-4 ovarian
OVCAR-5 ovarian = tested on: OVCAR-5 ovarian
OVCAR-8 ovarian = tested on: OVCAR-8 ovarian
PC-3 prostate = tested on: PC-3 prostate
RPMI-8226 leukemia = tested on: RPMI-8226 leukemia
RXF 393 renal = tested on: RXF 393 renal
SF-268 CNS = tested on: SF-268 CNS
SF-295 CNS = tested on: SF-295 CNS
SF-539 CNS = tested on: SF-539 CNS
SK-MEL-2 melanoma = tested on: SK-MEL-2 melanoma
SK-MEL-28 melanoma = tested on: SK-MEL-28 melanoma
SK-MEL-5 melanoma = tested on: SK-MEL-5 melanoma
SK-OV-3 ovarian = tested on: SK-OV-3 ovarian
SN12C renal = tested on: SN12C renal
SNB-19 CNS = tested on: SNB-19 CNS
SNB-75 CNS = tested on: SNB-75 CNS
SR leukemia = tested on: SR leukemia
SW-620 colon = tested on: SW-620 colon
T-47D breast = tested on: T-47D breast
TK-10 renal = tested on: TK-10 renal
U251 CNS = tested on: U251 CNS
UACC-257 melanoma = tested on: UACC-257 melanoma
UACC-62 melanoma = tested on: UACC-62 melanoma
UO-31 renal = tested on: UO-31 renal

CN1CCN(Cc2ccc(NC(=O)c3cncc(C#Cc4cnc5ccc(N[C@H]6CCOC6)nn45)c3)cc2C(F)(F)F)CC1
GI50 (786-0 renal): 268 nM
TGI (786-0 renal): 959 nM
GI50 (A498 renal): 278 nM
TGI (A498 renal): 490 nM
GI50 (A549 NSCLC): 175 nM
TGI (A549 NSCLC): 643 nM
GI50 (ACHN renal): 278 nM
TGI (ACHN renal): 980 nM
GI50 (BT-549 breast): 291 nM
TGI (BT-549 breast): 915 nM
GI50 (CAKI-1 renal): 148 nM
TGI (CAKI-1 renal): 511 nM
GI50 (CCRF-CEM leukemia): 28.3 nM
TGI (CCRF-CEM leukemia): 687 nM
GI50 (COLO 205 colon): 88 nM
TGI (COLO 205 colon): 197 nM
GI50 (DU-145 prostate): 170 nM
TGI (DU-145 prostate): 716 nM
GI50 (EKVX NSCLC): 128 nM
TGI (EKVX NSCLC): 696 nM
GI50 (HCC-2998 colon): 181 nM
TGI (HCC-2998 colon): 866 nM
GI50 (HCT-116 colon): 37 nM
TGI (HCT-116 colon): 290 nM
GI50 (HCT-15 colon): 321 nM
TGI (HCT-15 colon): 1290 nM
GI50 (HL-60(TB) leukemia): 43.7 nM
TGI (HL-60(TB) leukemia): 704 nM
GI50 (HOP-62 NSCLC): 172 nM
TGI (HOP-62 NSCLC): 677 nM
GI50 (HOP-92 NSCLC): 13.7 nM
TGI (HOP-92 NSCLC): 82.2 nM
GI50 (HS 578T breast): 62.1 nM
TGI (HS 578T breast): 393 nM
GI50 (HT29 colon): 90.3 nM
TGI (HT29 colon): 512 nM
GI50 (IGROV1 ovarian): 136 nM
TGI (IGROV1 ovarian): 394 nM
GI50 (K-562 leukemia): 6.9 nM
TGI (K-562 leukemia): 930 nM
GI50 (KM12 colon): 6.9 nM
TGI (KM12 colon): 526 nM
GI50 (LOX IMVI melanoma): 56.6 nM
TGI (LOX IMVI melanoma): 153 nM
GI50 (M14 melanoma): 103 nM
TGI (M14 melanoma): 315 nM
GI50 (MALME-3M melanoma): 98.2 nM
TGI (MALME-3M melanoma): 323 nM
GI50 (MCF7 breast): 46.1 nM
TGI (MCF7 breast): 274 nM
GI50 (MDA-MB-231 breast): 41.4 nM
TGI (MDA-MB-231 breast): 231 nM
GI50 (MDA-MB-435): 95.8 nM
TGI (MDA-MB-435): 813 nM
GI50 (MDA-MB-468 breast): 90.3 nM
TGI (MDA-MB-468 breast): 211 nM
GI50 (MOLT-4 leukemia): 46.8 nM
TGI (MOLT-4 leukemia): 866 nM
GI50 (NCI-H226 lung): 14.7 nM
TGI (NCI-H226 lung): 218 nM
GI50 (NCI-H23 lung): 81.4 nM
TGI (NCI-H23 lung): 249 nM
GI50 (NCI-H460 lung): 144 nM
TGI (NCI-H460 lung): 828 nM
GI50 (NCI-H522 lung): 103 nM
TGI (NCI-H522 lung): 249 nM
GI50 (NCI/ADR-RES ovarian): 5820 nM
TGI (NCI/ADR-RES ovarian): 25300 nM
GI50 (OVCAR-3 ovarian): 183 nM
TGI (OVCAR-3 ovarian): 1030 nM
GI50 (OVCAR-4 ovarian): 260 nM
TGI (OVCAR-4 ovarian): 2130 nM
GI50 (OVCAR-5 ovarian): 142 nM
TGI (OVCAR-5 ovarian): 536 nM
GI50 (OVCAR-8 ovarian): 252 nM
TGI (OVCAR-8 ovarian): 1130 nM
GI50 (PC-3 prostate): 185 nM
TGI (PC-3 prostate): 3690 nM
GI50 (RPMI-8226 leukemia): 237 nM
TGI (RPMI-8226 leukemia): 1230 nM
GI50 (RXF 393 renal): 108 nM
TGI (RXF 393 renal): 274 nM
GI50 (SF-268 CNS): 180 nM
TGI (SF-268 CNS): 917 nM
GI50 (SF-295 CNS): 291 nM
TGI (SF-295 CNS): 1260 nM
GI50 (SF-539 CNS): 21 nM
TGI (SF-539 CNS): 102 nM
GI50 (SK-MEL-2 melanoma): 152 nM
TGI (SK-MEL-2 melanoma): 350 nM
GI50 (SK-MEL-28 melanoma): 235 nM
TGI (SK-MEL-28 melanoma): 996 nM
GI50 (SK-MEL-5 melanoma): 487 nM
TGI (SK-MEL-5 melanoma): 1390 nM
GI50 (SK-OV-3 ovarian): 446 nM
TGI (SK-OV-3 ovarian): 2010 nM
GI50 (SN12C renal): 33.7 nM
TGI (SN12C renal): 398 nM
GI50 (SNB-19 CNS): 249 nM
TGI (SNB-19 CNS): 1120 nM
GI50 (SNB-75 CNS): 144 nM
TGI (SNB-75 CNS): 330 nM
GI50 (SR leukemia): 95 nM
TGI (SR leukemia): 9330 nM
GI50 (SW-620 colon): 72.3 nM
TGI (SW-620 colon): 367 nM
GI50 (T-47D breast): 704 nM
TGI (T-47D breast): 5150 nM
GI50 (TK-10 renal): 254 nM
TGI (TK-10 renal): 828 nM
GI50 (U251 CNS): 219 nM
TGI (U251 CNS): 1020 nM
GI50 (UACC-257 melanoma): 483 nM
TGI (UACC-257 melanoma): 1990 nM
GI50 (UACC-62 melanoma): 151 nM
TGI (UACC-62 melanoma): 801 nM
GI50 (UO-31 renal): 962 nM
TGI (UO-31 renal): 2290 nM
